From patent publication US8618163B2, “Derivatives of cycloalkyl- and cycloalkenyl-1,2-dicarboxylic acid compounds having formyl peptide receptor like-1 (FPRL-1) agonist or antagonist activity” (Allergan, Inc., priority 2010, dated 2013)
Like-named read-outs stand apart in the source and are kept apart here.

Legend:
FPRL1 = molecular target: T1, FPRL1 (Homo sapiens, UniProt P25090); test: compound-induced calcium activity on FLIPR Tetra in CHO-Gal6 cells stably expressing FPRL1; assay type: cell-based; conditions: for FPRL1 (rel. eff.): relative efficacy
T1 construct: expressed in transfected cells; host or cells: CHO-Gal6 (CHO cells with G alpha 16)
T1 sequence (P25090 1-351): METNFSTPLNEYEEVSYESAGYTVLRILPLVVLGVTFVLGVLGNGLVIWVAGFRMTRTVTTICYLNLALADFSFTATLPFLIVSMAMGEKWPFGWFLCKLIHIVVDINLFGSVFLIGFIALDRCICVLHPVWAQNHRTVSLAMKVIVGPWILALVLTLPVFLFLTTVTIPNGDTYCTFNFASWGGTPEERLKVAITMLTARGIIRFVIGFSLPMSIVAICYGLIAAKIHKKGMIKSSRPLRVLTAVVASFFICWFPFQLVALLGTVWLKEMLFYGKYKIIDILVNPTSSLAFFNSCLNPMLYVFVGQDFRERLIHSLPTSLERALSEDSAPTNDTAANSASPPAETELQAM
Description: (§1) CHO-Gal6 cells stably expressing FPRL1 were cultured in (F12, 10% FBS, 1% PSA, 400 μg/ml geneticin and 50 μg/ml hygromycin) and HEK-Gqi5 cells stable expressing FPR1 were cultured in (DMEM high glucose, 10% FBS, 1% PSA, 400 μg/ml geneticin and 50 μg/ml hygromycin). In general, the day before the experiment, 18,000 cells/well were plated in a 384-well clear bottom poly-d-lysine coated plate. The following day the screening compound-induced calcium activity was assayed on the FLIPR^Tetra. The drug plates were prepared in 384-well microplates using the EP3 and the MultiPROBE robotic liquid handling systems. Compounds were tested at concentrations ranging from 0.61 to 10,000 nM. Results are expressed as EC50 (nM) and efficacy values.

FPR1 = molecular target: T2, FPR1 (Homo sapiens, UniProt P21462); test: compound-induced calcium activity on FLIPR Tetra in HEK-Gqi5 cells stable expressing FPR1; assay type: cell-based; set-up: FPR1 (rel. eff.): scale not given here; conditions: for FPR1 (rel. eff.): relative efficacy
T2 construct: expressed in transfected cells; host or cells: HEK-Gqi5 (HEK cells with chimeric G protein Gqi5)
T2 sequence (P21462 1-350): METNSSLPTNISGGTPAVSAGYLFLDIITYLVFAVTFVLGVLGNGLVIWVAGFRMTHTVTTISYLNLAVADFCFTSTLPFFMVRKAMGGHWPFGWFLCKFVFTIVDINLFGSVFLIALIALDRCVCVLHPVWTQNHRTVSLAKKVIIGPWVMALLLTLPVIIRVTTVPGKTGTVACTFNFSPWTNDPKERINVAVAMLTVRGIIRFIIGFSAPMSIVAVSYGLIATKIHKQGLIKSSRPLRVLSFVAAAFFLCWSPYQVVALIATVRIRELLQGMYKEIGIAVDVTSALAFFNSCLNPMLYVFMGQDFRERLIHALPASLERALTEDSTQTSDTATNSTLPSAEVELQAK
Description: as §1

[1] = calcium, FLIPR Tetra, tested 0.61 to 10,000 nM, read-out: FPRL1 EC50
[2] = class symbol NA, read-out: FPR1 EC50 (NA = Not Active)
[3] = calcium, FLIPR Tetra, tested 0.61 to 10,000 nM, read-out: FPR1 EC50

Compound | EC50 (FPRL1; [1]) [nM] | FPRL1 (rel. eff.) (FPRL1; calcium, FLIPR Tetra) | EC50 (FPR1; [2]) [µM] | FPR1 (rel. eff.) (FPR1; calcium, FLIPR Tetra) | EC50 (FPR1; [3]) [µM] | EC50 (FPRL1; class symbol NA, read-out: FPRL1 EC50 (NA = Not Active)) [nM] | EC50 (FPR1; cells printed in μM, read-out: FPR1 EC50) [µM]
CC(C)=C1[C@H]2C=C[C@@H]1[C@H](C(=O)O)[C@@H]2C(=O)Nc1ccc(Br)cc1 (racemic) [Compound 20, (+/−)-(1S,4R,5S,6R)-6-(4-Bromophenylcarbamoyl) [bicyclo[2.2.1]hept[2]ene-7-propan-2-ylidene]-5-carboxylic Acid] | 30 | 0.96 | > 10 |  |  |  | 
O=C(O)C1C(C(=O)Nc2ccc(-c3ccccc3)cc2)C2C=CC1C21CC1 (racemic) [Compound 26, (+/−)-(1R,4S,5R,6S)-5-([1,1′-Biphenyl]-4-ylcarbamoyl)spiro[bicyclo[2.2.1]hept[2]ene-7,1′-cyclopropane]-6-carboxylic Acid] | 2360 | 0.69 | > 10 |  |  |  | 
O=C(O)C1C(C(=O)Nc2cccc(C(F)(F)F)c2)C2C=CC1C21CC1 (racemic) [Compound 27, (+/−)-(1S,4R,5S,6R)-6-β3-(Trifluoromethyl)phenyl)carbamoyl)spiro[bicyclo-[2.2.1]hept[2]ene-7,1′-cyclopropane]-5-carboxylic Acid] | 2770 | 0.72 | > 10 |  |  |  | 
O=C(O)C1C(C(=O)Nc2ccc(O)cc2)C2C=CC1C21CC1 (racemic) [Compound 33, (+/−)-(1S,4R,5S,6R)-6-((4-Hydroxyphenyl)carbamoyl)spiro[bicyclo[2.2.1]hept[2]ene-7,1′-cyclopropane]-5-carboxylic Acid] |  |  | > 10 |  |  | > 10000 | 
CCc1ccc(NC(=O)[C@H]2[C@@H](C(=O)O)[C@H]3CC[C@@H]2C32CC2)cc1 (racemic) [Compound 40, (+/−)-(1R,2S,3R,4S)-3-((4-Ethylphenyl)carbamoyl)spiro[bicyclo[2.2.1]heptane-7,1′-cyclopropane]-2-carboxylic Acid] | 16 | 0.79 | > 10 |  |  |  | 
O=C(O)[C@@H]1[C@H](C(=O)Nc2ccc(OC(F)(F)F)cc2)[C@@H]2CC[C@H]1C21CC1 (racemic) [Compound 41, (+/−)-(1R,2S,3R,4S)-3-((4-(Trifluoromethoxy)phenyl)carbamoyl)spiro-[bicyclo[2.2.1]heptane-7,1′-cyclopropane]-2-carboxylic Acid] | 123 | 0.80 | > 10 |  |  |  | 
CSc1ccc(NC(=O)[C@H]2[C@@H](C(=O)O)[C@H]3CC[C@@H]2C32CC2)cc1 (racemic) [Compound 42, (+/−)-(1R,2S,3R,4S)-3-((4-(Methylthio)phenyl)carbamoyl)spiro[bicyclo-[2.2.1]heptane-7,1′-cyclopropane]-2-carboxylic Acid] | 7 | 0.96 |  | 0.23 | 1.1 |  | 
C[S+]([O-])c1ccc(NC(=O)C2C(C(=O)O)C3CCC2C32CC2)cc1 (racemic) [Compound 44, (+/−)-(1R,2S,3R,4S)-3-((4-(Methylsulfinyl)phenyl)carbamoyl)spiro[bicyclo-[2.2.1]heptane-7,1′-cyclopropane]-2-carboxylic Acid] | 475 | 0.95 | > 10 |  |  |  | 
NC(=O)C1C(C(=O)Nc2ccc(Br)cc2)C2CCC1C21CC1 (racemic) [Compound 46A] | 6520 | 0.85 | > 10 |  |  |  | 

Second part, the molecule after the results:

EC50 (FPRL1; [1]) [nM] | FPRL1 (rel. eff.) (FPRL1; calcium, FLIPR Tetra) | EC50 (FPR1; [2]) [µM] | FPR1 (rel. eff.) (FPR1; calcium, FLIPR Tetra) | EC50 (FPR1; [3]) [µM] | EC50 (FPRL1; class symbol NA, read-out: FPRL1 EC50 (NA = Not Active)) [nM] | EC50 (FPR1; cells printed in μM, read-out: FPR1 EC50) [µM] | Compound
36 | 0.86 | > 10 |  |  |  |  | CC1(C)[C@@H]2CC[C@H]1[C@@H](C(=O)Nc1ccc(Cl)cc1)[C@H]2C(=O)O (racemic) [Compound 14, (+/−)-(1R,2S,3R,4S)-3-(4-Chlorophenylcarbamoyl)-7,7-dimethylbicyclo[2.2.1]heptane-2-carboxylic Acid]
243 | 0.76 | > 10 |  |  |  |  | CCOC(=O)C1C(C(=O)Nc2ccc(I)cc2)C2C=CC1C21CC1 (racemic) [Compound 17, Ethyl(+/−)-(1S,4R,5S,6R)-6-(4-Iodophenylcarbamoyl)spiro[bicyclo[2.2.1]hept[2]ene-7,1′-cyclopropane]-5-carboxylate]
187 | 0.72 | > 10 |  |  |  |  | CC(C)OC(=O)C1C(C(=O)Nc2ccc(I)cc2)C2C=CC1C21CC1 (racemic) [Compound 18, Iso-propyl(+/−)-(1S,4R,5S,6R)-6-(4-Iodophenylcarbamoyl)spiro[bicyclo[2.2.1]hept[2]ene-7,1′-cyclopropane]-5-carboxylate]
461 | 0.77 |  | 50 |  |  |  | CC(C)=C1[C@H]2C=C[C@@H]1[C@@H](C(=O)O)[C@H]2C(=O)Nc1ccc(Br)cc1 (racemic) [Compound 21, (+/−)-(1S,4R,5R,6S)-6-(4-Bromophenylcarbamoyl)[bicyclo[2.2.1]hept[2]ene-7-propan-2-ylidene]-5-carboxylic Acid]
164 | 0.89 |  |  | 8.3 |  |  | CC(C)=C1C2CCC1C(C(=O)Nc1ccc(Br)cc1)C2C(=O)O (racemic) [Compound 24, (+/−)-(1S,2R,3S,4S)-3-(4-Bromophenylcarbamoyl)[bicyclo[2.2.1]heptane-7-propan-2-ylidene]-2-carboxylic Acid]
149 | 0.74 | > 10 |  |  |  |  | O=C(O)C1C(C(=O)Nc2ccc(Br)cn2)C2C=CC1C21CC1 (racemic) [Compound 25, (+/−)-(1S,4R,5S,6R)-6-(5-Bromo-2-pyridylcarbamoyl)spiro[bicyclo[2.2.1]hept[2]ene-7,1′-cyclopropane]-5-carboxylic Acid]
616 | 0.70 | > 10 |  |  |  |  | O=C(O)C1C(C(=O)Nc2ccc(Cl)c(Cl)c2)C2C=CC1C21CC1 (racemic) [Compound 28, (+/−)-(1S,4R,5S,6R)-6-((3,4-Dichlorophenyl)carbamoyl)spiro[bicyclo[2.2.1]hept[2]-ene-7,1′-cyclopropane]-5-carboxylic Acid]
2260 | 0.9 | > 10 |  |  |  |  | O=C(O)[C@@H]1[C@H](C(=O)Nc2ccc3c(c2)oc2ccccc23)[C@@H]2CC[C@H]1C21CC1 (racemic) [Compound 31, (+/−)-(1S,4R,5S,6R)-6-(dibenzo[b,d]furan-3-ylcarbamoyl)spiro[bicyclo[2.2.1]-heptane-7,1′-cyclopropane]-5-carboxylic acid]
277 | 0.96 | > 10 |  |  |  |  | CC(=O)c1ccc(NC(=O)C2C(C(=O)O)C3C=CC2C32CC2)cc1 (racemic) [Compound 32, (+/−)-(1R,4S,5R,6S)-5-((4-Acetylphenyl)carbamoyl)spiro[bicyclo[2.2.1]hept[2]ene-7,1′-cyclopropane]-6-carboxylic Acid]
585 | 0.96 | > 10 |  |  |  |  | O=C(O)C1C(C(=O)Nc2ccc(OC(F)(F)F)cc2)C2C=CC1C21CC1 (racemic) [Compound 34, (+/−)-(1S,4R,5S,6R)-6-β4-(Trifluoromethoxy)phenyl)carbamoyl)spiro[bicyclo-[2.2.1]hept[2]ene-7,1′-cyclopropane]-5-carboxylic Acid]
14 | 0.85 | > 10 |  |  |  |  | CSc1ccc(NC(=O)C2C(C(=O)O)C3C=CC2C32CC2)cc1 (racemic) [Compound 35, (+/−)-(1S,4R,5S,6R)-6-((4-(Methylthio)phenyl)carbamoyl)spiro[bicyclo-[2.2.1]hept[2]ene-7,1′-cyclopropane]-5-carboxylic Acid]
59 | 0.91 | > 10 |  |  |  |  | CCc1ccc(NC(=O)C2C(C(=O)O)C3C=CC2C32CC2)cc1 (racemic) [Compound 36, (+/−)-(1S,4R,5S,6R)-6-((4-Ethylphenyl)carbamoyl)spiro[bicyclo[2.2.1]hept[2]ene-7,1′-cyclopropane]-5-carboxylic Acid]
49 | 0.71 |  | 0.50 |  |  | > 10 | CC(=O)c1ccc(NC(=O)[C@H]2[C@@H](C(=O)O)[C@H]3CC[C@@H]2C32CC2)cc1 (racemic) [Compound 43, (+/−)-(1S,2R,3S,4R)-2-((4-Acetylphenyl)carbamoyl)spiro[bicyclo[2.2.1]heptane-7,1′-cyclopropane]-3-carboxylic Acid]
